These results are taken from US11752158B2 (priority 2007, dated 2023).

Several values for one entry are separate records, joined by “and”; a condition that tells them apart may be missing. Identical values can stand only once. Entries after “also recorded” stand apart in the source; their conditions may differ.

Data set [1] is described as follows: Total serum 25-hydroxyvitamin D by LC-MS/MS (Example 1, FIG. 1). The class given is in vivo, rat. Conditions: indicated dosing, daily for a period of 5 days; 120 hours post initial dose. The procedure: (§1) To examine the reduction of toxicity associated with the co-administration of 25-hydroxyvitamin D3 with 25-hydroxyvitamin D2 compared to 25-hydroxyvitamin D3 alone, 90 male Sprague-Dawley rats are treated intravenously for five consecutive days with various combinations of 25-hydroxyvitamin D3 and 25-hydroxyvitamin D2. One day prior to the initiation of the study, rats are randomly selected, assigned to groups and treated as follows in Table 3:
(§2) The concentration of total 25-hydroxyvitamin D at 120 hours post initial dose was determined in serum samples using a high-performance liquid chromatographic method using tandem mass spectrometry detection. The method was utilized to determine the individual concentrations of 25-hydroxyvitamin D3 and 25-hydroxyvitamin D2 in serum and the total was determined as a sum of the concentrations. At 24 h post final dose, serum collected from animals was analyzed for changes in levels of 25-hydroxyvitamin D3, 25-hydroxyvitamin D2 and their metabolites.

Data set [2] deals with male Sprague-Dawley rats. The experiment in a line: Serum calcium levels at day 5 (Example 2, FIG. 6). The data set is classed as in vivo, rat. Conditions: i.v. once a day for 5 days. The method, then:
Another study was carried out to assess the effects of co-administration of 25-hydroxyvitamin D with 25-hydroxyvitamin D2 compared to 25-hydroxyvitamin D3 alone on 102 male Sprague-Dawley rats. Rats about […], about 175-250 g in weight, were divided into groups of six males each. The groups were administered various combinations of 25-hydroxyvitamin D3 and 25-hydroxyvitamin D2 intravenously (or the same volume of control vehicle) once daily via the jugular vein catheter, for five consecutive days, according to Table 5 below.
Dosing was carried out at similar times each day, within a three hour window of the time of last dose. Blood was collected at day 0 (the first day of treatment) for analysis, and animals were monitored twice daily. Animals from all groups were euthanized on day 5, 24 hours after the last dose, and blood was collected by cardiac puncture. All rats were subjected to an abbreviated necropsy.

The nature of data set [3]: Serum metabolites of 25-hydroxyvitamin D3 and 25-hydroxyvitamin D2 (Example 1, FIG. 4 and 5). The data set is classed as in vivo, rat. The procedure:
as §2

Data set [4] concerns male Sprague-Dawley rats. The experiment in a line: Serum calcium levels after 5-day i.v. dosing (Example 1, FIG. 2). The data set is classed as in vivo, rat. Conditions: Group 11: 6 μg/kg 25-hydroxyvitamin D3 alone, 5 day treatment period. The method, then:
as §1
(§3) For each day's treatment of each animal, the appropriate material was administered i.v. Daily treatments were performed within a 3 hours window on each day. On the first day of treatment (pre-dose) and at 24 hours time points on day 2 before the second dose administration (0 being the time of the first injection), blood (˜1 mL) was collected from the jugular vein catheter from animals in Group 1 to 15 into unpreserved tubes. The serum was separated out, transferred into new tubes that were immediately frozen at approximately −80° C. Prior to the sacrifice of all animals at 120 hours on Day 6 blood (˜2 mL) was collected into unpreserved tubes from the jugular vein catheter from all animals. […] For each animal, the necropsy consisted of an external examination, including reference to all clinically recorded lesions, as well as internal “abbreviated” examinations.

Data set [5] relates to patients with end-stage renal disease (ESRD). The experiment in a line: Serum calcium in end-stage renal disease patients on hemodialysis (Example 4). The data set is classed as in vivo, human. The settings on record: i.v. thrice weekly. The method, then: (§4) The formulations examined in this study are aqueous isotonic and sterile solutions containing either 20 mcg of 25-hydroxyvitamin D3 alone (test preparation #1) or in combination with 10 mcg 25-hydroxyvitamin D2 (test preparation #2). A total of 75 […] Caucasian, Asian, Hispanic and African-American subjects participate in this study, all of whom are at least 4-months on regular hemodialysis and have serum 25-hydroxyvitamin D levels below 15 ng/mL. Prior to enrolling, all subjects provide two fasting morning blood samples, separated by at least one week, to establish pre-treatment baseline values of serum calcium, plasma intact PTH, and serum 25-hydroxyvitamin D. On the morning of Day 1, the subjects are randomly assigned to one of three treatment groups, and they begin thrice weekly dosing with the test preparation #1 or #2, or with a matching placebo. All dosing occurs during regularly scheduled hemodialysis sessions and is accomplished by gradual injection (over a period of 1 to 5 minutes) into the blood exiting from the hemodialysis machine. […] At the conclusion of the study, the laboratory data are analyzed by treatment group and by test formulation after appropriate correction for baseline values. […]

The nature of data set [6]: Serum 25-hydroxyvitamin D in end-stage renal disease patients on hemodialysis (Example 4). The data set is classed as in vivo, human. The settings on record: i.v. thrice weekly, 20 mcg 25-hydroxyvitamin D3 alone or with 10 mcg 25-hydroxyvitamin D2; first 3 months of dosing, steady state thereafter. The method, then: as §4
For data set [7], the system named is male Sprague-Dawley rats. The experiment in a line: Gross necropsy after 5-day i.v. dosing (Example 1). The data set is classed as in vivo, rat. The settings on record: i.v. once a day for 5 days. The procedure:
as §1, §3

The subject of data set [8] is patients with advanced prostate cancer. The settings on record: human, in vivo, po. An excerpt:
The efficacy and safety of an oral preparation of 25-hydroxyvitamin D2 is examined in a 3-month study of patients with advanced prostate cancer being treated with high-dose calcitriol once per week. For this study, 25-hydroxyvitamin D2 was formulated in soft-gelatin capsules. Forty patients with advanced prostate cancer undergoing treatment with high-dose calcitriol and Docetaxel were divided into two equal groups. Along with weekly calcitriol doses, group #1 receives between 2-20 mcg 25-hydroxyvitamin D2, while group #2 receives placebo. Prior to enrolling, all subjects provide two fasting morning blood samples, separated by at least one week, to establish pre-treatment baseline values of serum calcium, plasma intact PTH, and serum 25-hydroxyvitamin D. Additional fasting blood samples and 24-hour urine collections are obtained from each subject 24 h following the administration of the weekly administration of calcitriol for determination of serum calcium and serum 25-hydroxyvitamin D. Throughout the study, all subjects adhere to a daily intake of approximately 1,000 to 1,500 mg of elemental calcium (from self-selected diets and calcium supplements, as needed) under the ongoing guidance of a dietician. At the conclusion of the study, the laboratory data are analyzed by treatment group and by test formulation after appropriate correction for baseline values.

In the case of `C=C1CC[C@H](O)C/C1=C/C=C1\CCC[C@]2(C)[C@@H]([C@H](C)CCCC(C)(C)O)CC[C@@H]12` [25-hydroxyvitamin D3], the “total serum 25-hydroxyvitamin D” value in data set [1] is on record as “elevation”. Also, the “Serum calcium levels at day 5” value in data set [2] (4 μg/kg 25-hydroxyvitamin D3 alone) and in data set [2] (8 μg/kg 25-hydroxyvitamin D3 alone) was “hypercalcemia” in each case. For the same compound, the “metabolism / catabolism of the prohormone” value in data set [3] (observation in rats, serum 24 h post final dose) was “catabolized more readily to the active 1,25-dihydroxyvitamin D3 form”. In data set [4], the serum calcium levels entry is “highest achieved level of serum calcium; also recorded: hypercalcemia”. Further, in data set [5] (20 mcg 25-hydroxyvitamin D3 alone or with 10 mcg 25-hydroxyvitamin D2, 3-month study), the mean serum calcium result is recorded as “increase significantly from baseline”. The “episodes of hypercalcemia (serum calcium above 10.2 mg/dL)” value in data set [5] (20 mcg 25-hydroxyvitamin D3 alone, 3-month study) is “more frequently observed”. The “serum 25-hydroxyvitamin D levels” value in data set [6] is listed as “progressively increasing”. For the same compound, the “Gross Necropsy Findings” value was “None” in data set [7] (Group 6: 25-hydroxyvitamin D2 0 μg/kg, 25-hydroxyvitamin D3 0.3 μg/kg); “Severe signs of toxicity (blood in the lungs) and 4 of 6 animals treated exhibiting blood in lung tissue and 4/6 animals had” in data set [7] (Group 11: 25-hydroxyvitamin D2 0 μg/kg, 25-hydroxyvitamin D3 6 μg/kg).

Turning to `C=C1CC[C@H](O)C/C1=C/C=C1\CCC[C@]2(C)[C@@H]([C@H](C)/C=C/[C@H](C)C(C)(C)O)CC[C@@H]12` [25-hydroxyvitamin D2], in data set [3] (rat, in vivo), the “metabolism / catabolism of the prohormone” value was “catabolized more readily to 24, 25-dihydroxyvitamin D2”. Besides, the “episodes of hypercalcemia (serum calcium above 10.2 mg/dL)” value in data set [8] was “more frequently observed in the placebo group than in the treatment group”.
